The values that follow come from US20080124310A1, “Bead based receptor biology” (priority 2006, published 2008).

Common to all, as to type: cell-based, murine
Experiment [1] has as its system RAW 264.7 macrophages. In words: Phagocytic receptor assay: engulfment of IgG or ligand coated particles by RAW macrophages (foam cell model), confocal. From the text: FIG. 25, panels A and B, illustrate respectfully a method for measurement of phagocytic receptors and a method for measuring transfection or delivery of nucleic acids and simultaneous measurement of particle engulfment using a single cell multi label confocal microscope experiment. A direct or surrogate measurement of receptor function or receptor pathway activity must be made in order establish the role of potential therapeutic target proteins in receptor function. IgG, complement, low density lipoprotein (LDL), oxidatively modified LDL (OX-LDL). Acetyl-LDL, apolipoproteins, lipoproteins, lipopolysaccharide (LPS), scavenger and other receptor functions can be measured by the accumulation of particles. The particles may themselves be comprised in part of fluorescent materials or can be directly stained with fluorescent or other colored materials or can be bound by proteins that directly or indirectly permit the attachment of fluorescent, chemiluminescent or other reporter molecules. The beads may be stained in live cells or cells fixed with formalin or paraformaldehyde or organic solvents such as alcohol and acids or by other means. The beads can be stained both before or after internalization with or without the permeabilization of the cells by detergents or organic solvents. The beads may be cells that can be lysed and imaged directly. The cells may be counter stained for the presence of specific proteins using antibodies or may express fluorescent protein constructs or contain fluorescent silencing RNA or DNA constructs or biopolymer modulating agents or drugs (FIG. 25).
We created a foam cell model and quantitative confocal assays for micro particle engulfment by macrophages. The engulfment of particles by macrophages and the generation of free radicals by leukocytes are the key physiological actions that lead to the generation of foam cells that are the center of atherosclerotic plaques. We made a cellular model system of foam cells or activated leukocytes and examine the effects of moderate levels of alcohol over time on the accumulation of particles and generation of free radicals at the site of particle accumulation compared to statins and propranolol. The model systems will consist of RAW macrophages that engulf hydrophobic polystyrene microparticles with or without coating by ligands or mixtures of ligands such as those found in cellular growth media, or free fluorescently labeled DI-LDL, OX-LDL, Acetyl LDL or other. Live cell confocal microscopy was used to quantify the effects of ethanol, compared to lovastatin and propranolol, on particle engulfment.
External particles were stained green with secondary anti rabbit FITC and then cells were permeablized and all particles stained red with secondary anti rabbit CY3. Thus engulfed particles appear red while external particles appear yellow. Beads within the cells carrying only the red signal (engulfed) and not also the green signal {red+green=yellow} (outside) were quantified for accumulation assays using both total fluorescence in the green channel and by counting individual beads in three fields on three independent cover slips for each concentration.
(§1) RAW 264.7 macrophages were cultured in alpha MEM with 5% fetal calf serum as described. The effects of lovastatin on IgG and LDL coated micro-particle engulfment at 0, 50 nM, 100 nM, 500 nM, 1 mM and higher was tested. The accumulation of free DI-LDL was quantified directly by its red fluorescence. External particles were stained green with secondary anti rabbit FITC and then cells were permeablized and all particles stained red with secondary anti rabbit CY3. Thus engulfed particles appear red while external particles appear yellow.

Experiment [2] has as its system RAW 264.7 macrophages. In words: Uptake of free fluorescent DI-LDL or OX-LDL, red fluorescence confocal microscopy. The settings on record: 594 nm. The protocol: as §1, with “yellow. Beads within the cells carrying only the red signal (engulfed) and not also the green signal {red+green=yellow} (outside) were quantified for accumulation assays using both total fluorescence in the green channel and by counting individual beads in three fields on three independent cover slips for each concentration.” for “yellow.”

Experiment [3] concerns Thrombospondin. The experiment can be described thus: Surface expression of thrombospondin on macrophages. From the text: Thrombospondin is a protein that is known to bind apolipoprotein and lipid receptors expressed on the surface of cells including the scavenger receptor class B multi ligand receptor CD36 associated with atherosclerosis and Alzheimer's.
Experiment [4] has as its system RAW macrophages. The experiment can be described thus: Biochemical measurement of protein levels in fractions of drug treated RAW macrophages. The source says:
A now well established side effect of ethanol is to prevent heart attack. Thus the common effects of statins, propranolol, and ethanol must be closely linked to the central mechanism that is the most important pharmacological target of heart attack and thus atherosclerosis prevention. It remains possible that the preventative effect of statins results from their effect to inhibit particle engulfment and foam cell formation by macrophages leading to atherosclerotic plaques. We created a foam cell model and quantitative confocal assays for micro particle engulfment by macrophages. The engulfment of particles by macrophages and the generation of free radicals by leukocytes are the key physiological actions that lead to the generation of foam cells that are the center of atherosclerotic plaques. We have made a cellular model system of leukocytes or activated leukocytes or leukocytes treated over time to examine the effects drugs and biopolymer modification materials over time on the activation of receptors at the site of modified or ligand coated particles. The drugs used in this system to examine the kinetics of receptor function at modified particles may result in changes to the cell including changes in gene expression at the level of DNA transcription, RNA production, accumulation or post-transcription processing, mRNA production accumulation or expression all of which may also alter protein expression. We examined the use of these model systems with and without beads as a system to screen the effects of drugs that are known to prevent heart attack and stroke in model of leukocyte cells within atherosclerotic plaques. We observe that drugs that effect receptor associated signaling may also alter gene, RNA or ultimately protein expression in cells resulting in changes in protein levels. Proteins that change levels in response to a drug may be themselves drug target proteins.
The drugs used in the leukocyte model system to examine the kinetics of receptor function at modified particles may result in changes to the cell including changes in gene expression at the level of DNA transcription, RNA production, accumulation or post-transcription processing, mRNA production accumulation or expression all of which may also alter protein expression. We examined the use of these model systems with and without beads as a system to screen the effects of drugs that are known to effect receptor response at or near the cell surface or interior of the cells. We observe that drugs that effect receptor associated signaling may also alter gene, RNA or ultimately protein expression in cells resulting in changes in protein levels. Proteins that change levels in response to a drug may be themselves drug target proteins. […] The RAW leukocyte model foam cells system alone or in combination with the bead based biology system can be used to characterize the effects of receptor or cellular activation in terms of second messengers such as lipid and protein phosphorylation with respect to drug treatment or time in the cytosol of leukocytes (FIG. 67).

As to `CC[C@H](C)C(=O)O[C@H]1C[C@@H](C)C=C2C=C[C@H](C)[C@H](CC[C@@H]3C[C@@H](O)CC(=O)O3)[C@H]21` [lovastatin], the “engulfment / accumulation of IgG or ligand coated particles” value in experiment [1] (RAW macrophages, confocal) was “reduced the capacity of RAW macrophages to engulf particles”. Moreover, the “dose that directly prevents engulfment of particles” value in experiment [1] (cultured macrophage leukocytes) is at most 100 nM. In addition, the “accumulation of free cholesterol (free fluorescent DI-LDL or OX-LDL)” value in experiment [2] was “no effect”. Also, in experiment [3], the “expression of Thrombospondin on the cell surface” value was “lowered the expression of Thrombospondin”. For the same compound, in experiment [4] (cytosol fraction), the “levels of cytosolic proteins (FIG. 57)” value is on record as “alter levels of proteins in the membranes”. The “levels of proteins in the extracellular matrix (FIG. 55)” value in experiment [4] (matrix fraction) is recorded as “alter levels of proteins in the extracellular matrix”. The “levels of proteins in the membranes (FIG. 54)” value in experiment [4] (membrane fraction) is “alter levels of proteins in the membranes”. For the same compound, the “levels of proteins in the secretions (FIG. 56)” value in experiment [4] (secreted proteins) is “alter levels of proteins in the secretions”.
